# According to ChEMBL document CHEMBL1157538, “Discovery of a potent, selective, and orally bioavailable c-Met inhibitor: 1-(2-hydroxy-2-methylpropyl)-N-(5-(7-methoxyquinolin-4-yloxy)pyridin-2-yl)-5-methyl-3-oxo-2-phenyl-2,3-dihydro-1H-pyrazole-4-carboxamide (AMG 458)” (J Med Chem, 2008):
# Assays:
# [1] = target: Hepatocyte growth factor receptor (Homo sapiens, UniProt P08581, H1094R); test: Inhibition c-Met H1094R mutant by HTRF assay
# [2] = Intrinsic clearance in human liver microsome; format: ADME; conditions: liver microsomes
# [3] = Intrinsic clearance in Beagle dog liver microsome; format: ADME, Canis lupus familiaris; conditions: liver microsomes
# [4] = Oral bioavailability in Sprague-Dawley rat at 10 mg/kg; format: ADME, organism-based; conditions: in vivo
# [5] = Terminal half life in BALB/c mouse; format: ADME, organism-based; conditions: in vivo, read-out: beta t1/2
# [6] = Terminal half life in Sprague-Dawley rat; format: ADME, organism-based; conditions: in vivo, read-out: beta t1/2
# [7] = Oral bioavailability in BALB/c mouse at 10 mg/kg; format: ADME, organism-based; conditions: in vivo
# [8] = Half life in Sprague-Dawley rat at 1 mg/kg, iv or 10 mg/kg, po; format: ADME, organism-based; conditions: in vivo
# [9] = Inhibition of PDGF
# [10] = target: Tyrosine-protein kinase Fes/Fps (Homo sapiens, UniProt P07332); test: Inhibition of FES
# [11] = Oral bioavailability in cynomolgus monkey at 10 mg/kg; format: ADME, organism-based, Macaca fascicularis; conditions: in vivo
# [12] = target: T1, Tyrosine-protein kinase ITK/TSK (Homo sapiens, UniProt Q08881); test: Inhibition of ITK
# T1 sequence (Q08881 whole entry): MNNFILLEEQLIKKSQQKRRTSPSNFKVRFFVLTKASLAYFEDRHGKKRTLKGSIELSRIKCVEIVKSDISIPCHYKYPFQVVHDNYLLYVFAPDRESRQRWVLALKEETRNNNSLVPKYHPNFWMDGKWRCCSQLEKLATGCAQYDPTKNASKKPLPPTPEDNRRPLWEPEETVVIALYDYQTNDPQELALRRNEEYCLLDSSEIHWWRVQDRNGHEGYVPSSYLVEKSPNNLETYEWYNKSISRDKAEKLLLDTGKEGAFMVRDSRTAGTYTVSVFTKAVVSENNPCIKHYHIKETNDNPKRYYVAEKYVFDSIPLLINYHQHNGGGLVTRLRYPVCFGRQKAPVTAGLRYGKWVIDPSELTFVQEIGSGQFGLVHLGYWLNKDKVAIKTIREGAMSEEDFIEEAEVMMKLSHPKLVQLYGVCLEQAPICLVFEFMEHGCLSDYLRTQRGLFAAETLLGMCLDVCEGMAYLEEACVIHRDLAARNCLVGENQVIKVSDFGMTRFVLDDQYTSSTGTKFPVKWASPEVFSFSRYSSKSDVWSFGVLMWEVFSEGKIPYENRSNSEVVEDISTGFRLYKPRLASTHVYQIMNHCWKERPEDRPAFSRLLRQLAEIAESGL
# [13] = Intrinsic clearance in Sprague-Dawley rat liver microsome; format: ADME; conditions: liver microsomes
# [14] = Volume of distribution at steady state in Sprague-Dawley rat at 1 mg/kg, iv or 10 mg/kg, po; format: ADME, organism-based; conditions: in vivo
# [15] = Apparent permeability across pig LLC-PK1 cells; format: ADME, cell-based, Sus scrofa; conditions: read-out: permeability
# [16] = target: Hepatocyte growth factor receptor (Homo sapiens, UniProt P08581); test: Inhibition of HGF-mediated c-Met phosphorylation in human PC3 cells; format: cell-based, PC-3
# [17] = Drug level in po dosed BALB/c mouse plasma after 6 hrs; format: ADME, organism-based
# [18] = Clearance in Sprague-Dawley rat at 1 mg/kg, iv or 10 mg/kg, po; format: ADME, organism-based; conditions: in vivo
# [19] = Inhibition of Aurora1
# [20] = Inhibition c-Met […] mutant
# [21] = target: Hepatocyte growth factor receptor (Mus musculus, UniProt P16056); test: Inhibition of HGF-mediated c-Met phosphorylation in mouse CT26 cells; format: cell-based
# [22] = Volume of distribution at steady state in cynomolgus monkey at 1 mg/kg, iv or 10 mg/kg, po; format: ADME, organism-based, Macaca fascicularis; conditions: in vivo, read-out: Vdss
# [23] = Antitumor activity in human U87MG cells xenografted orally dosed CD1 NU/NU mouse assessed as tumor growth inhibition after 14 days; format: functional, U-87MG ATCC; conditions: U-87 MG, po, 336 h
# [24] = tested on: Mus musculus; test: Inhibition of HGF-mediated c-Met phosphorylation in po dosed BALB/c mouse liver after 6 hrs; format: functional
# [25] = Half life in cynomolgus monkey at 1 mg/kg, iv or 10 mg/kg, po; format: ADME, organism-based, Macaca fascicularis; conditions: in vivo
# [26] = Volume of distribution at steady state in BALB/c mouse at 1 mg/kg, iv or 10 mg/kg, po; format: ADME, organism-based; conditions: in vivo, read-out: Vdss
smiles,measurement,setting,value
COc1ccc2c(Oc3ccc(NC(=O)c4c(C)n(CC(C)(C)O)n(-c5ccccc5)c4=O)nc3)ccnc2c1,Ki,[1],0.5 nM
same,microsomal CLint,[2],18 µL/min/mg
same,microsomal CLint,[3],8 µL/min/mg
same,bioavailability,[4],100%
same,half-life,[5],< 2 h
same,half-life,[6],< 2 h
same,bioavailability,[7],100%
same,half-life,[8],1 h
same,IC50,[9],120 nM
same,IC50,[10],706 nM
same,bioavailability,[11],78%
same,IC50,[12],62 nM
same,microsomal CLint,[13],62 µL/min/mg
same,Vd,[14],0.62 L/kg
same,Papp,[15],27 ×10⁻⁶ cm/s
same,IC50,[16],60 nM
same,concentration at 6 h,[17],15 µM
same,clearance,[18],12.2 mL/min/kg
same,IC50,[19],280 nM
same,Ki,[20],1.1 nM
same,IC50,[21],120 nM
same,Vd,[22],0.56 L/kg
same,ED50,[23],16 mg/kg
same,ED90,[23],59 mg/kg
same,ED90,[24],30 mg/kg
same,half-life,[25],5.7 h
same,Vd,[26],0.31 L/kg
